Results on 8 compounds are retold here after patent US20090318534A1, “METHODS AND COMPOSITIONS FOR THE TREATMENT OF SKIN DISEASES AND DISORDERS” (THE REGENTS OF THE UNIVERSITY OF CALIFORNIA, priority 2006, published 2009).

“Also recorded” adds a separate entry of the source.

For data set [1], the system named is protease activity in rosacea skin. Nature of the data set: Skin protease activity (BODIPY FL casein substrate) of rosacea skin extracts with protease inhibitors. The note with it: tape-stripped rosacea facial skin extracts, FITC/BODIPY FL casein, 37° C. 24 h; 20 μg/ml aprotinin, 200 μM AEBSF; FIG. 3k. The format is biochemical, human. The procedure:
Skin protease activity. To obtain skin surface protease, facial skin was tape-stripped 20 times then immersed in 1 ml 1 M acetic acid and incubated 4° C. overnight, extracts were lyophilized and the pellet dissolved in 40 μl of 1×PBS, pH 7.4. Protease activity was monitored with EnzCheck® Protease Assay Kit green fluorescence (Molecular Probes, Inc., Eugene, Oreg.) according to manufacturer's instructions. Briefly, 10 μl of the aqueous solution collected from the skin surface was mixed with 190 μl of BODIPY FL casein substrate in 10 mM Tris-HCl, pH 7.8, and incubated at 37° C. for 24 h. Protease activity was monitored as increased fluorescence with SpectraMax GEMINI EM (Molecular Devices Corporation, Sunnyvale, Calif.). In some experiments protease inhibitors were added including mixed protease inhibitors (Complete EDTA-free, 1 tablet/50 ml; Roche, Indianapolis, Ind.), 200 μg/ml bestatin, 20 μg/ml E-64, and 20 μg/ml aprotinin (Sigma-Aldrich, St. Louis, Mo.), 200 μM 4-(2-aminoethyl)-benzenesulfonylfluoride (AEBSF), 200 μM human neutrophil elastase inhibitor (methoxysuccinyl-Ala-Ala-Pro-Ala-chloromethyl ketone), 200 μM human leukocyte elastase inhibitor (methoxysuccinyl-Ala-Ala-Pro-Val-chloromethylketone, Calbiochem, San Diego, Calif.).

The target in data set [2] is T1, kallikrein stratum corneum tryptic enzyme (SCTE) (Homo sapiens, UniProt Q9Y337).
T1 sequence (Q9Y337 23-293): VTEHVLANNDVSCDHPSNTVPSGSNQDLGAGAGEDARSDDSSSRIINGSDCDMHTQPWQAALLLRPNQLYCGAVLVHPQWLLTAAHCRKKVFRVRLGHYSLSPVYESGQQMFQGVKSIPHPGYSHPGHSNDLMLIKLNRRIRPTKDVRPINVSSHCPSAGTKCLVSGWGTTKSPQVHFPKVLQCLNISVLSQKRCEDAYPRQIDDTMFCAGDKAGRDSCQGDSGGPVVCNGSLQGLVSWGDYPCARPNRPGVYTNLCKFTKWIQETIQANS
Nature of the data set: Inhibition of SCTE in vitro. The format is biochemical. The source says: In one aspect of the disclosure, a method of treatment of inflammatory diseases and disorders, rosacea and or acnes comprises inhibiting cathelicidin expression or activity. Examples of compositions and methods for inhibiting the expression of cathelicidins include antisense, ribozyme and gene therapy techniques. For example, rosacea can be inhibited or treated using antisense or ribozyme therapies that reduce the expression of cathelicidin. In one aspect, a vitamin D inhibitor, or vitamin D receptor antagonist can be used to reduce expression of a cathelicidin. Examples of compositions and methods for inhibiting cathelicidin activity include antibodies and small molecule agents. In one aspect, the treatment is at the site of inflammation through topical inhibition of Vitamin D activity, inhibiting of a Vitamin D receptor activity, or an inhibitor of a protease that cleaves full length cathelicidin into its active fragments is provided. For example, a method of the disclosure comprises inhibiting the kallikrein stratum corneum tryptic enzyme (SCTE), an enzyme that cleaves the cathelicidin precursor protein.

Data set [3] has as its system Normal human keratinocytes. Nature of the data set: Measurement of IL-8 release. The format is cell-based. To be noted: peptides 3.2 μM, 6 h, ELISA; FIG. 4a. The method, then: Measurement of IL-8 release. Normal human keratinocytes (Cascade Biologics) were grown in EpiLife medium (Cascade Biologics) supplemented with 0.06 mM Ca2, 1% EpiLife defined growth supplement, and 1% penicillin/streptomycin (Invitrogen Life Technologies). Cells were grown at 37° C. in a humidified atmosphere of 5% CO2 and 95% air. Human keratinocytes were cultured to confluence and treated with the cathelicidin peptides (3.2 μM) for 6 h. Supernatants were collected and placed in a sterile 96-well plate for ELISA. IL-8 production was determined by ELISA (R&D systems) according to the manufacturer's instructions.
For orientation: An ELISA detects its analyte on a solid surface through an enzyme-linked reagent.

Data set [4] deals with mouse skin. Description: Mouse skin inflammation model, subcutaneous injection of cathelicidin peptides. To be noted: for skin inflammation (erythema, vascular dilatation) / histology of injected skin: 320 μM in 40 μl; for skin inflammation (erythema, vascular dilatation): injected twice a day for 2 d, assessed after 48 hr; for histology of injected skin: biopsy after 48 hr. The class given is in vivo, Balb/C and C57/B16 mice. The procedure: Mouse skin inflammation models. All animal procedures were approved by the Veterans Affairs (VA) San Diego Healthcare System subcommittee on animal studies. Balb/C and C57/B16 mice shaved 24 h prior to treatments and injected subcutaneously on the back with 40 μl of peptide (320 μM) twice a day. Forty-eight h after initial injection (total 4 injections), skin inflammation was assessed by the severity of erythema and edema, then biopsied for histology.
Mouse skin inflammation models. Balb/C or […] mice shaved 24 h prior to treatments were injected subcutaneously on the back with 40 μl of peptide at different concentrations (320, 32, 3.2, 0.32 μM, and PBS as 0 μM) twice a day. Forty-eight h after initial injection (total 4 injection), skin inflammation was assessed by the severity of erythema and edema. Skin was then biopsied for hematoxlin eosin staining to examine the histopathological changes. Frozen sections were also prepared and processed for immunostaining that included rat monoclonal anti-mouse Ly-6G (BD Biosciences, San Jose, Calif.) or rat monoclonal anti-mouse CD31 (BD Biosciences). Goat anti-rat IgG conjugated to FITC (Abcam Inc., Cambridge, Mass.) was used as the secondary antibody. Nuclei were stained with DAPI and sections were mounted in ProLong Anti-Fade reagent (Molecular Probes). Images were obtained using an Olympus BX41 microscope (Scientific Instrument Company, Temecula, Calif.).

In data set [5] the test system is mouse skin. Nature of the data set: Subcutaneous injection of SCTE in mice, skin inflammation and cathelicidin processing. The format is in vivo. The procedure: Skin from Spink5^−/− mice had altered expression of cathelicidin peptides similar to that seen in rosacea (FIG. 4i). The main peak was GLL-34 (m/z 3,877; FIG. 4i, arrowhead), a mouse cathelicidin peptide similar in activity to human LL-37. Like LL-37, GLL-34 was not detected in wild-type mouse littermates with normal serine protease activity. […] To determine whether an increase in SCTE results in greater inflammation, SCTE was injected subcutaneously in a manner similar to that used for the cathelicidin peptides themselves. The amount of SCTE in human skin is as high as 2-13 ng per mg of dry weight of skin. From the data of the protease assay, the amount of serine protease activity in lesional skin of individuals with rosacea was estimated to be as high as 500 ng of tryptic kallikrein per mg of dry weight of skin. Therefore, […] of SCTE was injected twice a day for 2 d to mimic local concentrations seen in rosacea. […] Therefore, the increase in SCTE observed in rosacea would account for the pathological changes observed this disease.

Data set [6] addresses T2, mouse cathelicidin (UniProt P51437).
T2 sequence: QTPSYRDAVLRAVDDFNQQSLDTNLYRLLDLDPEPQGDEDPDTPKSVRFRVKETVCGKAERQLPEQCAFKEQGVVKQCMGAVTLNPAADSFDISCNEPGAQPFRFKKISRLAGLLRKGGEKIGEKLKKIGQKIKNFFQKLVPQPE

`NCCc1ccc(S(=O)(=O)F)cc1` [AEBSF, 4-(2-aminoethyl)-benzenesulfonylfluoride]: in data set [1], the “protease activity in rosacea skin” value was “completely suppressed protease activity; also recorded: effective in eliminating activity”. Besides, the “inhibition of SCTE in vitro” value in data set [2] is “can inhibit this enzyme in vitro”.

For the compound “DI-27: synthetic cathelicidin peptide DISCDKDNKRFALLGDFFRKSKEKIGK (SEQ ID NO:7) (Partial Peptide Sequence from TOF-MS)”, the “secretion of IL-8 from cultured human keratinocytes” value (“secretion” below) in data set [3] is “did not”.

For “FA-29: synthetic cathelicidin peptide FALLGDFFRKSKEKIGKEFKRIVQRIKDF (SEQ ID NO:10) (Partial Peptide Sequence from TOF-MS)”, the “secretion” value in data set [3] was “induced secretion of IL-8”. The “skin inflammation (erythema, vascular dilatation)” value in data set [4] was “induced erythema and vascular dilatation”. The “histology of injected skin” value in data set [4] (twice a day for 2 d) was “neutrophilic infiltrate, thrombosis and hemorrhage”.

With “KR-20: synthetic cathelicidin peptide KRIVQRIKDFLRNLVPRTES (SEQ ID NO:15)”, the “secretion” value in data set [3] is listed as “did not induce cytokine release”. Moreover, the “skin inflammation (erythema, vascular dilatation)” value in data set [4] is “did not induce inflammation”.

As to “LL-37: synthetic cathelicidin peptide LLGDFFRKSKEKIGKEFKRIVQRIKDFLRNLVPRTES (SEQ ID NO:14) (Partial Peptide Sequence from TOF-MS)”, the “secretion” value in data set [3] is listed as “induced secretion of IL-8”. Besides, the “skin inflammation (erythema, vascular dilatation)” value in data set [4] was “induced erythema and vascular dilatation”. The “histology of injected skin” value in data set [4] (twice a day for 2 d) is “neutrophilic infiltrate, thrombosis and hemorrhage”. In addition, the “lowest concentration with dose-dependent inflammatory reaction” value in data set [4] (320-0.32 μM, 40 μl, twice a day for 2 d, FIG. 7d, Balb/C and C57/B16) is 3.2 µM.

Take “SCTE: kallikrein SCTE (stratum corneum tryptic enzyme, KLK5), serine protease that cleaves cathelicidin precursor”: the “cell infiltration after SCTE injection in Camp−/− mice compared with wild type mice” value in data set [5] (Camp−/− versus wild type, infiltrated cells per HPF, n=4, P<0.05) was “considerably less cell infiltration; also recorded: significantly less cell infiltration”. The “skin inflammation and cathelicidin processing after SCTE injection” value in data set [5] (active SCTE injected subcutaneously twice a day for 2 d, versus control (boiled SCTE)) was “induced erythema and inflammatory cell infiltration accompanied by processing of cathelicidin peptide; also recorded: showed inflammation and processed cathelicidin peptide”.

For aprotinin, the “protease activity in rosacea skin” value in data set [1] was “completely suppressed protease activity; also recorded: effective in eliminating activity”. Also, in data set [2], the “inhibition of SCTE in vitro” value was “can inhibit this enzyme in vitro”.

Take stratum corneum tryptic enzyme (SCTE): in data set [6], the “cathelicidin processing in mouse skin after subcutaneous SCTE injection (SELDI-TOF-MS)” value was “SCTE-treated skin showed inflammation and processed cathelicidin peptide (m/z 4,244, sequence FKKISRLAGLLRKGGEKIGEKLKKIGQKIKNFFQKLV (SEQ ID NO:3))”.
